The assay has as its target T1, mouse TRPV3 (Mus musculus, UniProt Q8K424).
T1 sequence (Q8K424 1-791): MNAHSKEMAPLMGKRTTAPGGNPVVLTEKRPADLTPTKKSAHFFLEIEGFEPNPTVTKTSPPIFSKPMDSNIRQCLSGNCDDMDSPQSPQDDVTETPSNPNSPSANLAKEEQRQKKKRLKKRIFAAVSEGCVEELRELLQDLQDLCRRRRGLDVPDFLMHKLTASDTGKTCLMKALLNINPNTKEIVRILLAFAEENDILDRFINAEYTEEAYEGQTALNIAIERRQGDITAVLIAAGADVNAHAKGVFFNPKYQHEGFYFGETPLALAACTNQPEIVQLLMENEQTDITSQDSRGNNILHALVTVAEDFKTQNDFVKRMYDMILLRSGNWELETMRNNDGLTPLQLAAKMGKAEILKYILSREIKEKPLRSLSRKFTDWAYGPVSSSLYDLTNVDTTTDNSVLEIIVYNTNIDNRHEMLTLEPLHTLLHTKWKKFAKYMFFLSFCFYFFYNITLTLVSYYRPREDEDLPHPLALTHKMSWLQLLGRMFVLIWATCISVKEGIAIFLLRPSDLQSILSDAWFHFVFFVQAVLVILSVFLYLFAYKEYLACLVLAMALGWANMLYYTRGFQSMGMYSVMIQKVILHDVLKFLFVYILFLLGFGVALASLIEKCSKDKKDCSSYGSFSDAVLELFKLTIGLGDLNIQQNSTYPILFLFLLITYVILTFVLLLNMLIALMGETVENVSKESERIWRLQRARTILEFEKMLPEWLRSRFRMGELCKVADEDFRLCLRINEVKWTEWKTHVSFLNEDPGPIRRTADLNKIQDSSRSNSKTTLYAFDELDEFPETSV
The assay is described as follows: Voltage-step whole-cell recording of TRPV3 currents (40 μM 2-APB) in HEK 293T cells. Format: cell-based. Details: expressed in transfected cells; host or cells: HEK 293T. The conditions noted are these: steps –160 to +180 mV, dyclonine 10, 30 μM, RR 10 μM. The text has this: Conventional whole-cell and excised patch-clamp recording methods were used. For the recombinant expressing system, green fluorescent EGFP was used as a surface marker for gene expression. Recording pipettes were pulled from borosilicate glass capillaries (World Precision Instruments) and fire-polished to a resistance between 2 and 4 MΩ when filled with internal solution containing (in mM) 140 CsCl, 2.0 MgCl2, 5 EGTA, and 10 HEPES, pH 7.4 (adjusted with CsOH). Bath solution contained (in mM): 140 NaCl, 5 KCl, 3 EGTA, and 10 HEPES, pH 7.4 adjusted with NaOH. For recordings in keratinocytes, the bath saline consisted of (in mM) 140 NaCl, 5 KCl, 2 MgCl2, 2 CaCl2, 10 glucoses, and 10 HEPES, pH 7.4 adjusted with NaOH, and the pipette solution contained (in mM) 140 CsCl, 5 EGTA, and 10 HEPES, pH 7.3 adjusted with CsOH. […] For a subset of recordings, currents were amplified using an Axopatch 200B amplifier (Molecular Devices, Sunnyvale, CA) and recorded through a BNC-2090/MIO acquisition system (National Instruments, Austin, TX) using QStudio developed by Dr. Feng Qin at State University of New York at Buffalo. […] As determined by the conductance tests, the solution around a patch under study was fully controlled by the application of a flow rate of 100 μl/min or greater. […]

SMILES strings stand for the structures.

On to `CCCCOc1ccc(C(=O)CCN2CCCCC2)cc1` [dyclonine], for which the “effect on TRPV3-mediated inward and outward currents (voltage dependence)” value is given as “the inhibition occurred independently of the membrane potential”.

The record behind these values is PMC8112869, “Therapeutic inhibition of keratinocyte TRPV3 sensory channel by local anesthetic dyclonine” (eLife, 2021).
